pEC50: −log10 of the molar value. Some results are limits rather than exact numbers.

By CC50 is commonly meant the concentration at which the toxic effect on the cells reaches its halfway point. For orientation: pEC50 means −log10 of the EC50, conventionally taken in molar units. In general, melting point refers to the temperature, or range, at which the solid turns liquid.

Series [1] is described as follows: Cytotoxicity on HELF cells in the anti-HCMV cytopathogenicity test. The class given is cell-based. The conditions noted are these: human lung fibroblasts (HELF cells), 6 days incubation, visual evaluation. Here is the method:
(§1) The test compounds were employed as 50 millimolar (mM) solutions in dimethyl sulphoxide (DMSO). Ganciclovir, foscarnet and cidofovir served as reference compounds. Following the addition of in each case 2 μl of the 50, 5, 0.5 and 0.05 mM DMSO stock solutions to in each case 98μ of cell culture medium in row […], in duplicate determinations, 1:2 dilutions with in each case 50 μl of medium were prepared up to row 11 of the 96-well plate. The wells in rows 1 and 12 each contained 50 μl of medium. 150 μl of a suspension of 1×10^4 cells (human lung fibroblasts [HELF]) (row 1=cell control) or, in rows 2-12, a mixture of HCMV-infected and non-infected HELF cells (M.O.I.=0.001-0.002), i.e. 1-2 infected cells per 1000 non-infected cells, were then pipetted into each of the wells. Row 12 (without substance) served as virus control. The final test concentrations were 250-0.0005 μM. The plates were incubated at 37° C./5% CO2 for 6 days, i.e. until all cells in the virus controls had been infected (100% cytopathogenic effect [CPE]). The wells were then fixed and stained by adding a mixture of Formalin and Giemsa Stain (30 minutes), washed with doubly distilled water and dried in a drying cabinet at 50° C. The plates were then evaluated visually using an overhead microscope (plaque multiplier from Technomara). From the test plates, the following data were determined: CC50 (HELF)=substance concentration in μM at which, compared to the untreated cell control, no visible cytostatic effects on the cells were noticeable;

Series [2] can be described thus: Cytotoxicity on 3T3 cells in the anti-MCMV cytopathogenicity test. The class given is cell-based. The settings on record: mouse, 3T3 mouse cells, 5 days incubation. As for the experimental part: (§2) The test compounds were employed as 50 millimolar (mM) solutions in dimethyl sulphoxide (DMSO). Ganciclovir, foscarnet and cidofovir served as reference compounds. Following the addition of in each case 2 μl of the 50, 5, 0.5 and 0.05 mM DMSO stock solutions to in each case 98μ of cell culture medium in row 2 A-H, in duplicate determinations, 1:2 dilutions with in each case 50 μl of medium were prepared up to row 11 of the 96-well plate. The wells in rows 1 and 12 each contained 50 μl of medium. 150 μl of a suspension of 1×10^4 cells (human lung fibroblasts [HELF]) (row 1=cell control) or, in rows 2–12, a mixture of HCMV-infected and non-infected HELF cells (M.O.I.=0.001–0.002), i.e. 1–2 infected cells per 1000 non-infected cells, were then pipetted into each of the wells. Row 12 (without substance) served as virus control. The final test concentrations were 250–0.0005 μM. The plates were incubated at 37° C./5% CO2 for 6 days, i.e. until all cells in the virus controls had been infected (100% cytopathogenic effect [CPE]). The wells were then fixed and stained by adding a mixture of Formalin and Giemsa Stain (30 minutes), washed with doubly distilled water and dried in a drying cabinet at 50° C. The plates were then evaluated visually using an overhead microscope (plaque multiplier from Technomara).
(§3) CC50 (HELF)=substance concentration in μM at which, compared to the untreated cell control, no visible cytostatic effects on the cells were noticeable;
(§4) Compared to the process described above for HCMV, the anti-MCMV test was carried out with the following changes: a cell-free virus suspension was mixed with a concentrated cell suspension (3T3 mouse cells) and incubated for 15 minutes for adsorption of the viruses, and the suspension was then diluted with medium to 1.3×10^5 cells/ml with a final multiplicity of infection (M.O.I.) of from 0.05–0.1, and in each case 150 μl were dispensed into the wells. The incubation time was 5 days.
For orientation: Cytopathic effects are the visible damage that an infection or toxin causes in cultured cells.

The subject of another series is HCMV. Put plainly: Anti-HCMV cytopathogenicity test. The class given is cell-based, human cytomegalovirus. The conditions noted are these: for pEC50: Human betaherpesvirus 5, 144 h, inhibition of CPE by 50% in HCMV-infected HELF cells, M.O.I. 0.001–0.002, 6 days; for SI HCMV: selectivity index = CC50 (HELF)/EC50 (HCMV). As for the experimental part: Anti-HCMV (Anti-Human Cytomegalovirus) and anti-MCMV (Anti-Murine Cytomegalovirus) cytopathogenicity tests: The test compounds were employed as 50 millimolar (mM) solutions in dimethyl sulphoxide (DMSO). Ganciclovir, foscarnet and cidofovir served as reference compounds. Following the addition of in each case 2 μl of the 50, 5, 0.5 and 0.05 mM DMSO stock solutions to in each case 98μ of cell culture medium in row […], in duplicate determinations, 1:2 dilutions with in each case 50 μl of medium were prepared up to row 11 of the 96-well plate. The wells in rows 1 and 12 each contained 50 μl of medium. 150 μl of a suspension of 1×10^4 cells (human lung fibroblasts [HELF]) (row 1=cell control) or, in rows 2-12, a mixture of HCMV-infected and non-infected HELF cells (M.O.I.=0.001-0.002), i.e. 1-2 infected cells per 1000 non-infected cells, were then pipetted into each of the wells. Row 12 (without substance) served as virus control. The final test concentrations were 250-0.0005 μM. The plates were incubated at 37° C./5% CO2 for 6 days, i.e. until all cells in the virus controls had been infected (100% cytopathogenic effect [CPE]). The wells were then fixed and stained by adding a mixture of Formalin and Giemsa Stain (30 minutes), washed with doubly distilled water and dried in a drying cabinet at 50° C. The plates were then evaluated visually using an overhead microscope (plaque multiplier from Technomara). From the test plates, the following data were determined: EC50 (HCMV)=substance concentration in μM which inhibits the CPE (cytopathic effect) by 50% compared to the untreated virus control; SI (selectivity index)=CC50 (HELF)/EC50 (HCMV).

The subject of a further series is MCMV. Put plainly: Anti-MCMV cytopathogenicity test. The class given is cell-based, murine cytomegalovirus. The settings on record: for pEC50: Murid betaherpesvirus 1, 120 h, MCMV-infected 3T3 mouse cells, M.O.I. 0.05–0.1, 5 days; for SI MCMV: selectivity index, 3T3 CC50 / MCMV EC50. As for the experimental part: Anti-HCMV (Anti-Human Cytomegalovirus) and anti-MCMV (Anti-Murine Cytomegalovirus) cytopathogenicity tests:
as §2, §4

The subject of series [3] is human lung fibroblasts [HELF]. Put plainly: Cytotoxicity on HELF cells in the anti-HCMV cytopathogenicity test. The conditions noted are these: 6 days incubation, visual evaluation. The class given is cell-based. As for the experimental part: as §1
Another series concerns 3T3 mouse cells. Put plainly: Cytotoxicity on 3T3 cells in the anti-MCMV cytopathogenicity test. The class given is cell-based. The conditions noted are these: 5 days incubation. As for the experimental part: as §2, §3, §4

Compound `CC(C)(CF)C(=O)Nc1cccc(NS(=O)(=O)c2ccc(-c3noc(-c4ccccn4)n3)cc2)c1` [Example 1, 3-Fluoro-2,2-dimethyl-N-{3-[({4-[5-(2-pyridinyl)-1,2,4-oxadiazol-3-yl]phenyl}-sulphonyl)amino]phenyl}propanamide] registered a melting point of 178.9 °C. The same compound gave a CC50 at 6 days in series [1] of 110000 nM. The compound also yielded a cytotoxic concentration (CC50) at 5 days in series [2] of 33000 nM. Moreover, in the series with HCMV, the pEC50 was 7.26 and the “SI HCMV” value is listed as 2000. In addition, in the series on MCMV, the negative-log EC50 (pEC50) is 7.72 and the “SI MCMV” value was found to be 1737.
`CC1(C(=O)Nc2cccc(NS(=O)(=O)c3ccc(-c4noc(-c5ccccn5)n4)cc3)c2)CC1` [Example 3, 1-Methyl-N-{3-[({4-[5-(2-pyridinyl)-1,2,4-oxadiazol-3-yl]phenyl}sulphonyl)-amino]phenyl}cyclopropanecarboxamide] registered a melting point of 202 °C. In addition, the CC50 at 6 days in series [1] was < 140000 nM. The same compound gave a 50% cytotoxic concentration (CC50) at 5 days in series [2] of 23000 nM. Also, in the series on HCMV, the pEC50 was 7.74 and the “SI HCMV” value is recorded as <7778. In addition, in the series with MCMV, the pEC50 is 8.10 and the “SI MCMV” value amounted to 2875.
In series [3], `Cc1cc(-c2nc(-c3ccc(S(=O)(=O)Nc4cccc(NC(=O)C5(C)CC5)c4)cc3)no2)n[nH]1` [Example 9, 1-Methyl-N-{3-[({4-[5-(5-methyl-1H-pyrazol-3-yl)-1,2,4-oxadiazol-3-yl]phenyl}-sulphonyl)amino]phenyl}cyclopropanecarboxamide] displayed a CC50 of 39000 nM. Also, in the series with 3T3 mouse cells, the cytotoxic concentration (CC50) was determined as 4000 nM. Also, in the series with HCMV, the negative logarithm of the EC50 (pEC50) was 7.74 and the “SI HCMV” value stood at 2167. In the series on MCMV, the pEC50 was 7.17 and the “SI MCMV” value is reported as 59.
Compound `CC(=O)Nc1cccc(-c2nc(-c3ccc(S(=O)(=O)Nc4cccc(NC(=O)C5(C)CC5)c4)cc3)no2)n1` [Example 132, N-(3-{[(4-{5-[6-(Acetylamino)-2-pyridinyl]-1,2,4-oxadiazol-3-yl}phenyl)sulphonyl]-amino}phenyl)-1-methylcyclopropanecarboxamide] displayed a CC50 at 6 days in series [1] of 47000 nM. Further, it took 2300 nM to reach half-maximal cytotoxicity in series [2] (CC50 at 5 days). Further, in the series with HCMV, the negative logarithm of the EC50 (pEC50) was 8.22 and the “SI HCMV” value worked out at 7833. In addition, in the series on MCMV, the negative-log EC50 (pEC50) was 8.52 and the “SI MCMV” value worked out at 767.
For the compound `CC1(C(=O)Nc2cccc(NS(=O)(=O)c3ccc(-c4noc(-c5cccc(N)n5)n4)cc3)c2)CC1` [Example 134, N-{3-[({4-[5-(6-Amino-2-pyridinyl)-1,2,4-oxadiazol-3-yl]phenyl}sulphonyl)amino]-phenyl}-1-methylcyclopropanecarboxamide], the cytotoxic concentration (CC50) at 6 days in series [1] was determined as 94000 nM. Moreover, half-maximal cytotoxicity in series [2] (CC50 at 5 days) was put at 8000 nM. Further, in the series with HCMV, the negative logarithm of the EC50 (pEC50) was 8.05 and the “SI HCMV” value is 10444. For the same compound, in the series with MCMV, the negative-log EC50 (pEC50) is 8.33 and the “SI MCMV” value is given as 1617.
`CC(C)(CF)C(=O)Nc1cccc(NS(=O)(=O)c2ccc(-c3noc(-c4cccc(N)n4)n3)cc2)c1` [Example 135, N-{3-[({4-[5-(6-Amino-2-pyridinyl)-1,2,4-oxadiazol-3-yl]phenyl}sulphonyl)amino]-phenyl}-3-fluoro-2,2-dimethylpropanamide]: in series [1], the CC50 at 6 days is 47000 nM. This compound also came in with a cytotoxic concentration (CC50) at 5 days in series [2] of 3000 nM. Besides, in the series on HCMV, the pEC50 is 8.28 and the “SI HCMV” value is 9039. In the series on MCMV, the pEC50 was 7.96 and the “SI MCMV” value is listed as 273.

The values are drawn from patent US7115612B2, “Arylsulfonamides as antiviral agents” (Bayer Aktiengesellschaft, priority 2001, dated 2006).
